The text below walks through data of EP0533825B1, “ETHER LIPID-NUCLEOSIDE COVALENT CONJUGATES” (WAKE FOREST UNIVERSITY, priority 1990, dated 1991).

The subject of test [1] is CEM-SS cells. Description: Cell cytotoxicity (Table 1). Particulars: read-out: Inhibitory Concentration50 For: Cell Cyto-toxicity. It is filed as cell-based.
Test [2] deals with CEM-SS cells. Description: CEM-SS cell growth, 3H-Tdr pulse labelling to measure DNA synthesis. It is filed as cell-based. Particulars: Homo sapiens, 48 hours at 37°C, then 3H-Tdr pulse for 8 hours. How it is done: To determine the IC₅₀ for cell growth, CEM-SS cells in suspension culture (10,000 cells/ml RPMI-1640 growth medium) were incubated with serial dilutions of compound at 37°C for 48 hours and then pulsed labelled with 1 microCi of ³H-Tdr (SA = 20 Ci/mmole) for 8 hours at 37°C to measure DNA synthesis.

Test [3] deals with HIV-1. Particulars: persistently infected monocyte/macrophage (U1) cells. An excerpt: Anti-HIV1 Activity of Lipid-Nucleoside Conjugates. […] In brief, CEM-SS cell monolayers were infected with HIV-1. […] Plaques were counted at five days after infection. In this assay HIV-1 syncytial plaques are seen as large, multicellular foci (10 to 25 nuclei/syncytium) that appear either brown and granular or clear. Silnce the number of HIV-1 syncytial plaques correlates with reverse transcriptase (RT) and p24 core antigen activity in the HIV-1 infected cell overlay fluids, the syncytial plaque assay can be used to quantify the amount of infectious virus. […] The activity of p24 core antigen induced by HIV-1 infection of CEM-SS cells was measured spectrophotometrically using the commercial Coulter EIA.
(§1) Anti-HIV1 Activity of Lipid-Nucleoside Conjugates in Monocyte/Macrophages. Monocyte/macrophages represent a major reservoir of HIV-1 in the infected human host. […] However, these cells tend to be resistent to dideoxynucleoside prodrugs due to low levels of kinases needed to activate the prodrugs. See C. […]

In test [4] the test system is HIV-1. Particulars: persistently infected monocyte/macrophage (U1) cells.
Text: as §1
The source holds these as a separate data set.

Take `CCCCCCCCCCCCCCCCSCC(COP(=O)(O)OC[C@H]1O[C@@H](n2cc(C)c(=O)[nH]c2=O)C[C@@H]1N=[N+]=[N-])OC` (stereo partly drawn) [Compound C, 3'-Azido-3'-deoxythymidine-5'-monophosphate-D,L-3-hexadecylthio-2-methoxypropane]: the IC50 in the test with CEM-SS cells [1] (Homo sapiens, CEM-SS) is 29.2 ± 5.7 µM. On to `CCCCCCCCCCCCCCCCOCC(COP(=O)([O-])OC(CC(=O)OC[C@H]1O[C@@H](n2cc(C)c(=O)[nH]c2=O)C[C@@H]1N=[N+]=[N-])C[N+](C)(C)C)OCC` (stereo partly drawn) [Compound AA, 3'-Azido-3'-deoxythymidine-5'-butyrate-γ-N,N,N-trimethyl-ammonium-β-(1-phospho-2-ethoxy-3-hexadecyloxypropane)], for which the IC50 in the test on CEM-SS cells [2] turned out to be 13.5 µM.

On to `CCCCCCCCCCCCCCCCOCC(COP(=O)(O)OC[C@H]1O[C@@H](n2cc(C)c(=O)[nH]c2=O)C[C@@H]1N=[N+]=[N-])OCC` (stereo partly drawn) [Compound B, 3'-Azido-3'-deoxythymidine-5'-monophosphate-D,L-3-hexadecyloxy-2-ethoxypropane], for which the IC50 in the test on CEM-SS cells [1] (Homo sapiens, CEM-SS) came to 35 ± 2.1 µM. Regarding `O=c1[nH]cnc2c1ncn2[C@H]1CC[C@@H](CO)O1` [DDI, dideoxyinosine], the IC50 in the test on CEM-SS cells [1] (Homo sapiens, CEM-SS) was > 100 µM. With “3'-Azido-3'-deoxythymidine-5'-monophosphate-D,L-3-octadecanamido-2-ethoxypropane [Compound A]”, in the test with CEM-SS cells [1], the IC50 was determined as 53.8 µM.

In the case of `CCCCCCCCCCCCCCCCCC(=O)NCC(COP(=O)([O-])OC(CC(=O)OC[C@H]1O[C@@H](n2cc(C)c(=O)[nH]c2=O)C[C@@H]1N=[N+]=[N-])C[N+](C)(C)C)OCC` (stereo partly drawn) [BB, 3'-Azido-3-deoxythymidine-5'-butyrate-γ-N,N,N-trimethyl-ammonium-β-(1-phospho-2-ethoxy-3-octadecanamidopropane)], the IC50 with CEM-SS cells [2] amounted to 13.7 µM. On to `Cc1cn([C@H]2C[C@H](N=[N+]=[N-])[C@@H](CO)O2)c(=O)[nH]c1=O` [AZT, 3'-azido-3'-deoxythymidine], for which the IC50 in the test with CEM-SS cells [1] (Homo sapiens, CEM-SS) was 5.6 µM; in the test with CEM-SS cells [2], 5.1 µM. In addition, the “Percent of Control (RT DPM)” value with HIV-1 [3] is on record as 90% of Control. Moreover, the “Percent of Control (p24 Core Ag)” value with HIV-1 [3] is reported as 101% of Control. The “Percent of Control (PFU)” value with HIV-1 [4] is 87% of Control.
